Measured values: article PMC10357929 (Journal of the American Chemical Society, 2023)
Entries after “also recorded” stand apart in the source; their conditions may differ.

Legend:
[1] = tested on: NUGC-3 (p53Y220C/+) cells; conditions: 72 h
NCI-H1299 p53-null cells [2] = test: Cell viability assay; format: cell-based; conditions: 72 h
p53Y220C [3] = target: T1, p53Y220C (Homo sapiens, UniProt P04637, Y220C); test: Western blot of p53K382ac level in NUGC-3 cells; format: cell-based; conditions: 10 μM, 24 h
p53Y220C [4] = target: T1, p53Y220C; test: Western blot / FLAG-IP of p53K382ac level in NCI-H1299; format: cell-based
[5] = tested on: other bromodomain-containing proteins; test: BromoMelt profiling against other bromodomain-containing proteins; conditions: 10 μM, duplicates
p53-target genes [6] = test: RT-qPCR of p53-target genes in NCI-H1299 p53Y220C stable cells; format: cell-based; conditions: 10 μM, 24 h; for increase in p21 mRNA expression: relative to DMSO
p53Y220C and p300 = p53Y220C and p300 (Homo sapiens, UniProt P04637+Q09472, Y220C); test: p53-FLAG pull-down of p53Y220C-p300 ternary complex; format: cell-based; conditions: 24 h
BxPC3 cells = test: Clonogenic assay, BxPC3; format: cell-based; conditions: 1, 3, 10 μM, 14 days; compared to PK9328 and compound 33
NUGC-3 cells = test: Clonogenic assay, NUGC-3; format: cell-based; conditions: 1, 3, 10 μM, 14 days; compared to PK9328 and compound 33
PNT2 cells = test: Cytotoxicity in normal prostate cell line PNT2; format: cell-based; conditions: read-out: GI50 (cytotoxicity)
BxPC3 (p53Y220C/−) cells = conditions: for GI50: 72 h
p53Y220C [7] = target: T1, p53Y220C; test: Western blot of p53K382ac level in BxPC3 cells; format: cell-based; conditions: 10 μM, 24 h
NCI-H1299 p53-null cells [8] = test: Western blot of p53K382ac level in NCI-H1299 p53-null cells; format: cell-based; conditions: 0, 1, 3, 10 μM, 24 h
p53-target genes [9] = test: RNA-seq in NCI-H1299 p53-null and p53Y220C cells; format: cell-based, human; conditions: 10 μM, 24 h
[10] = tested on: p53 WT U-2OS cancer cells; test: Cell viability assay; format: cell-based; conditions: 72 h; for inhibition of cell growth at the highest concentration tested: 10 μM
p53Y220C [11] = target: T1, p53Y220C; conditions: cited from earlier work
[12] = p300-siRNA 72 h, then compound 72 h

## CCn1c2ccc(CNCCOCCOCCOCCn3cc(COc4ccc(CCc5nc6cc(-c7c(C)noc7C)ccc6n5CCN5CCOCC5)cc4F)nn3)cc2c2ccc(-c3cc(C)cs3)cc21 [MS78]
[1]
  GI50: 2.7 ± 0.5 µM
NCI-H1299 p53-null cells [2]
  cell growth inhibition: did not induce any significant cell growth inhibition
p53Y220C [3]
  increase in the p53K382ac level: about 4 fold
p53Y220C [4]; 0, 1, 3, 10 μM, 24 h, NCI-H1299 p53Y220C
  K382 acetylation: significantly induced K382 acetylation
p53Y220C [4]; 10 μM, 6 h
  increase in p53K382ac level: about 2 fold
p53Y220C [4]; 10 μM, 24 h
  increase in p53K382ac level: about 4 fold
  p53K382ac induction compared to compound 7: about 2 fold
p53Y220C [4]; p300 knockdown, NCI-H1299 (p53Y220C)
  p53Y220C K382 acetylation in p300 siRNA-treated cells: significantly diminished; also recorded: abolished
p53Y220C [4]; read-out: ACE50 (the concentration at which 50% of p53Y220C is acetylated), 24 h, acetylation level at 10 μM MS78 as the maximum response
  EC50: 1.87 ± 0.3 µM
[5]
  selectivity over a panel of other BRD-containing proteins: selective for the CBP/p300 BRD
p53-target genes [6]
  effect on TIGAR, BAX, and PUMA (BBC3) genes: little or modest effect
  expression of p21 (CDKN1A) and Mdm2 genes: less upregulation
  increase in p21 mRNA expression: 8 fold
p53Y220C and p300; NCI-H1299 p53-null cells
  p53-p300 interaction (FLAG pull-down): no interaction was observed
p53Y220C and p300; NCI-H1299 p53Y220C cells
  p53Y220C-p300 interaction (FLAG pull-down): induced an interaction between p53Y220C and p300
BxPC3 cells
  clonogenicity: marked reduction in clonogenicity
NCI-H1299 p53Y220C cells; 72 h
  cell growth inhibition: concentration-dependently inhibited the cell growth
NCI-H1299 p53Y220C cells; [12]
  antiproliferative effect after knockdown of p300: abolished the antiproliferative effect
NUGC-3 cells
  clonogenicity: marked reduction in clonogenicity
PNT2 cells
  GI50: > 10 µM
BxPC3 (p53Y220C/−) cells
  GI50: 3.3 ± 1 µM
BxPC3 (p53Y220C/−) cells; GI50 in BxPC3 and NUGC-3
  higher potency compared to the parent compound PK9328: about 4 fold
p53Y220C [7]
  increase in the p53K382ac level: about 4 fold
NCI-H1299 p53-null cells [8]
  K382 acetylation: did not induce K382 acetylation
p53-target genes [9]
  expression of BAX, PUMA (BBC3), and NOXA (PMAIP1) genes: no significant upregulation
  expression of DDR genes such as ATM, ATR, and CHEK1/2: downregulation
  expression of heat shock protein genes such as HSPA5, HSP40 (DNAJB1), HSP1A1/B: upregulation
[10]
  inhibition of cell growth at the highest concentration tested: 30–40%
  GI50: > 10 µM

## CCn1c2ccc(CNC)cc2c2ccc(-c3cscn3)cc21 [PK9323]
p53Y220C [11]
  stabilizes p53Y220C with a melting temperature (Tm): 3.1 °C

## CCn1c2ccc(CNC)cc2c2ccc(-c3cc(C)cs3)cc21 [PK9328, reference compound]
[1]
  GI50: 12.6 ± 1.9 µM
NCI-H1299 p53-null cells [2]
  cell growth inhibition: did not induce any significant cell growth inhibition
p53-target genes [6]
  effect on TIGAR, BAX, and PUMA (BBC3) genes: little or modest effect
  expression of p21 (CDKN1A) and Mdm2 genes: upregulated
  increase in p21 mRNA expression: 12 fold
NCI-H1299 p53Y220C cells; [12]
  reduction in the cell growth in p300-siRNA-treated cells: about 50%
PNT2 cells
  GI50: > 10 µM
BxPC3 (p53Y220C/−) cells
  GI50: 13.9 ± 2.4 µM
NCI-H1299 p53-null cells [8]
  K382 acetylation: did not significantly induce K382 acetylation
[10]
  inhibition of cell growth at the highest concentration tested: 30–40%
  GI50: > 10 µM
